{"source": "paper PMC12526212", "about": "“Novel Isolongifolenone-Based Caprolactam Derivatives as Potential Anticancer Agents via the p53/mTOR/Autophagy Pathway” (Molecules, 2025)", "key": {"A549": {"tested_on": "A549", "assay": "CCK-8 antiproliferative assay, A549", "type": "cell-based", "conditions": "Homo sapiens, A549; CCK-8, 48 h, mean ± SD of three experiments; read-out: IC50 A549", "description": "After synthesis and characterization, the isolongifolenone bicyclocaprolactam derivatives were evaluated for their in vitro antiproliferative activity against three cancer cell lines (MCF-7, HepG2, A549) using a CCK-8 assay. […] In general, the antiproliferative activities of most of these compounds were similar, irrespective of whether electron-withdrawing or electron-donating substituents were introduced in the phenoxy ring.\nThree cancer cell lines (human breast adenocarcinoma cells MCF-7, human lung adenocarcinoma epithelial cells A549, and human hepatocellular carcinoma cells HepG2) were obtained from the Cell Bank of the Chinese Academy of Sciences (Shanghai, China). LO2 human normal liver cells were also purchased from STEM RECELL (Beijing, China, STM-CL-5770). The anti-proliferation activity of compounds was tested on three cancer cell lines. The cytotoxicity of compounds as tested on normal cell line (human normal liver cells LO2). Cells were seeded at a density of 5000 cells per well in 96-well plates. Natural product piperlongumine was used as the positive control. All experiments were performed in triplicate. Three cancer cell lines were cultured in High DMEM medium or RIPM 1640 containing 10% FBS (Sijiqing, Hangzhou, China) and 1% antibiotics at 37 °C in a 5% CO2 incubator. The experimental cells were seeded in a 96-well plate at 5000 cells per well and incubated for 24 h. The old medium was replaced with experimental medium, and the cells were cultured for 48 h. Afterward, 10 µL of CCK-8 solution was added to each well, and the cells were incubated for 3 h. The absorbance at 450 nm was measured using a microplate reader."}, "MCF-7 cells": {"tested_on": "MCF-7 cells", "assay": "Autophagy assay using transmission electron microscopy", "type": "cell-based, human", "conditions": "24 h", "description": "To investigate whether E10 induced autophagy in MCF-7 cells, we performed Monodansylcadaverine (MDC) staining, transmission electron microscopy (TEM), and Western blot analysis to evaluate autophagy-related markers. MDC is a fluorescent probe commonly used to detect the formation of autophagic vacuoles, as it specifically labels autophagosomes.\nMCF-7 cells were treated with E10 for 24 h. Cells were washed twice with pre-cold PBS, fixed in 2% glutaraldehyde at 4 °C for 2 h. Then, the sample was post-fixed in 2% osmium tetroxide for 1 h at 4 °C in the dark. Samples were dehydrated through a graded ethanol series, infiltrated and embedded in Spurr’s resin, and polymerized at 60 °C overnight. Ultrathin sections (~70–90 nm) were cut on an ultramicrotome, mounted on copper grids, counterstained with uranyl acetate and lead citrate, and examined by transmission electron microscopy (JEM-100CX; JEOL, Tokyo, Japan) at the indicated magnifications."}, "MCF-7 xenograft": {"tested_on": "MCF-7 xenograft", "assay": "Zebrafish MCF-7 xenograft model", "type": "in vivo", "excerpt": "Zebrafish have become a well-established model for both anticancer drug discovery and toxicity evaluation. This animal model affords several unique advantages, including rapid development, optical transparency, and genetic conservation with humans. These features make zebrafish particularly suitable for high-throughput in vivo screening and mechanistic studies in oncology research. Tumor burden in zebrafish xenografts is commonly quantified from Dil/DiI-labeled fluorescence area or integrated intensity, which correlates with cell number and treatment response. To assess the in vivo antitumor efficacy of compound E10, we established a zebrafish xenograft model. Briefly, CM-Dil-labeled MCF-7 cells (showing red fluorescence) were microinjected into the yolk sacs of zebrafish embryos. The xenografted zebrafish were then randomly assigned into five groups: three E10-treatment groups (0.5 µg/mL, 1.0 µg/mL, and 2.0 µg/mL), a Doxorubicin (Dox) positive control group, and a PBS negative control group.\nAll experimental procedures were approved by ACUC of Shandong Academy of Sciences (Animal Care and Use Committee). Wild-type AB of zebrafish were obtained from Biology Institute, Qilu University of Technology. The embryos were incubated in special embryonic medium (0.17 mM KCl, 5.0 mM NaCl, 0.4 mM CaCl2, and 0.16 mM MgSO4) at 28 °C. 48 h-old zebrafish embryos were microinjected with CM-Dil labelled MCF-7 cells under stereomicroscopy. After injection, zebrafish embryos with the same injection spot were randomly planted on a six-well plate. These xenograft zebrafish were sorted into four groups of about 15–20 zebrafish each and treated with 0.5, 1.0, 2.0 μg/mL of compound E10 for 48 h, 1.0 μM doxorubicin as a positive control group. After treatment, the fluorescence intensity of living cells was examined with laser confocal microscopy (Olympus, Tokyo, Japan)."}}, "data": [{"smiles": "CC1(C)C2=CC(=O)N(C(=O)C=Cc3cccc(C(F)(F)F)c3)CC(C)(C)C23CCC1C3", "note": "(stereo not shown) [E10, 5,5,9,9-Tetramethyl-3-(3-(3-(trifluoromethyl)phenyl)acryloyl)-4,5,6,7,8,9-hexahydro-5a,8-methanobenzo[d]azepin-2(3H)-one]", "values": [{"measurement": "IC50", "setting": "A549", "result": "1390 ± 320", "unit": "nM"}, {"measurement": "TEM, autophagic vesicles", "setting": "MCF-7 cells", "result": "presence of membrane-bound autophagic vesicles"}, {"measurement": "inhibition rate (decrease in fluorescence)", "setting": "MCF-7 xenograft; 2.0 µg/mL E10, 48 h", "result": 50.0, "unit": "%"}, {"measurement": "fluorescence intensity of xenograft", "setting": "MCF-7 xenograft; 48 h, compared with PBS control, Dox 1.0 μM", "result": "notable reduction in fluorescence intensity"}]}]}
